According to the supplement of paper PMC10307832:

Compound: CC[C@@H]1C(=O)N(C)c2cnc(Nc3ccc(C(=O)NC4CCN(C)CC4)cc3OC)nc2N1C1CCCC1 [BI-2536] + CS(=O)(=O)CCNCc1ccc(-c2ccc3ncnc(Nc4ccc(OCc5cccc(F)c5)c(Cl)c4)c3c2)o1 [Lapatinib] (partner 2 µM)
Assay: relative viability (nuclei count vs DMSO), 5 days (fraction); higher = more cells survive
Details: first compound 1 µM
Outline: (§1)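 A single step with final 0.05% Triton X-100, 1% formaldehyde and 1 ug/ml Hoechst fixed the cells and stained nuclei 5 days after treatment. Lung cancer cell lines in 1536-well plates had been treated by pin tool the day after seeding with one drug alone or a fixed anchor-drug dose plus five library-drug doses (not always all listed) in √10 steps, and nuclei were counted on 4× images. Relative viability is the ratio of nuclei in treated wells to nuclei in vehicle wells, taken as the median of duplicate plates.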

| Cell Line | relative viability |
| --- | --- |
| SK-LU-1 | 0.189 |
| NCI-H1395 | 0.733 |

Compound: CC1CC(=O)N(C2=CN=C(N=C2N1C3CCCC3)NC4=C(C=C(C=C4)C(=O)NC5CCN(CC5)C)OC)C [NPK76-II-72-1] + CS(=O)(=O)N1CCN(Cc2cc3nc(-c4cccc5[nH]ncc45)nc(N4CCOCC4)c3s2)CC1 [Pictilisib] (partner 1 µM)
Assay: as above
Details: first compound 0.01 µM
Outline: as §1

| Cell Line | relative viability |
| --- | --- |
| NCI-H2085 | 0.494 |
| Calu-6 | 0.894 |
| HCC-366 | 0.117 |
| NCI-H1666 | 0.305 |
| NCI-H596 | 0.401 |
| LK-2 | 0.582 |
| NCI-H2087 | 0.895 |
| SK-MES-1 | 0.429 |
| H3255 | 0.449 |
| COR-L23 | 0.742 |
| COR-L 105 | 0.424 |
| IA-LM | 0.314 |
| LOU-NH91 | 0.501 |
| NCI-H2170 | 0.281 |
| NCI-H2405 | 0.485 |
| HOP-62 | 0.606 |
| HCC-44 | 0.542 |
| A549 | 0.469 |
| LU99A | 0.371 |
| BEN | 0.526 |
| HARA | 0.371 |
| NCI-H322M | 0.45 |
| NCI-H2009 | 0.812 |
| A-427 | 0.747 |
| NCI-H661 | 0.416 |
| NCI-H1734 | 0.427 |
| NCI-H460 | 0.238 |
| NCI-H2347 | 0.811 |
| SK-LU-1 | 0.532 |
| NCI-H1395 | 0.615 |

Same assay, conditions: first compound 0.03162 µM

| Cell Line | relative viability |
| --- | --- |
| NCI-H2085 | 0.385 |
| Calu-6 | 1.01 |
| HCC-366 | 0.117 |
| NCI-H1666 | 0.55 |
| NCI-H596 | 0.338 |
| LK-2 | 0.567 |
| NCI-H2087 | 0.838 |
| SK-MES-1 | 0.384 |
| H3255 | 0.449 |
| COR-L23 | 0.895 |
| COR-L 105 | 0.467 |
| IA-LM | 0.363 |
| LOU-NH91 | 0.507 |
| NCI-H2170 | 0.357 |
| NCI-H2405 | 0.467 |
| HOP-62 | 0.766 |

| Cell Line | relative viability |
| --- | --- |
| HCC-44 | 0.911 |
| A549 | 0.509 |
| LU99A | 0.32 |
| BEN | 0.551 |
| HARA | 0.368 |
| HCC-78 | 0.233 |
| NCI-H322M | 0.573 |
| LCLC-97TM1 | 0.251 |
| NCI-H2009 | 0.974 |
| A-427 | 0.796 |
| NCI-H661 | 0.422 |
| NCI-H1734 | 0.478 |
| NCI-H460 | 0.297 |
| NCI-H2347 | 0.817 |
| SK-LU-1 | 0.648 |
| NCI-H1395 | 0.645 |

Same assay, conditions: first compound 0.1 µM

| Cell Line | relative viability |
| --- | --- |
| NCI-H2085 | 0.494 |
| Calu-6 | 0.953 |
| HCC-366 | 0.128 |
| NCI-H1666 | 0.35 |
| NCI-H596 | 0.396 |
| LK-2 | 0.636 |
| NCI-H2087 | 0.895 |
| SK-MES-1 | 0.295 |
| H3255 | 0.476 |
| COR-L23 | 0.831 |
| COR-L 105 | 0.423 |
| IA-LM | 0.33 |
| LOU-NH91 | 0.46 |
| NCI-H2170 | 0.279 |
| NCI-H2405 | 0.479 |
